Results as given in ChEMBL document CHEMBL1201862, “PubChem BioAssay data set” (2004).
Values joined by “and” are separate entries in the source; they are usually repeats but may differ in a detail not shown here. Equal values may be shown once.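 Cultured in 96-well plates, cells were exposed to test compound for 48 hours across five concentrations. Here, GI50 denotes the concentration required for 50% inhibition of growth.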 Active and inactive are the calls of the source. Cut-off read from the data, not from the text of the source: active = GI50 up to about 1.1 µM and inactive = higher.

Legend:
Assay in all cases: inhibition of tumour cell growth, NCI panel, 48 h
[1] = test system: Malme-3M
[2] = test system: SN12C
[3] = test system: SK-MEL-5
[4] = test system: M14
[5] = test system: 786-0
[6] = test system: SF-539
[7] = test system: HCT-116
[8] = test system: ACHN
[9] = test system: TK-10
[10] = test system: CCRF-CEM
[11] = test system: HT-29
[12] = test system: MDA-MB-231
[13] = test system: HOP-92
[14] = test system: HOP-62
[15] = test system: MDA-N
[16] = test system: PC-3
[17] = test system: HL-60
[18] = test system: SNB-19
[19] = test system: CAKI-1
[20] = test system: SK-MEL-2

SMILES | GI50 [1] | GI50 [2] | GI50 [3] | GI50 [4] | GI50 [5] | GI50 [6] | GI50 [7] | GI50 [8] | GI50 [9] | GI50 [10] | GI50 [11] | GI50 [12] | GI50 [13] | GI50 [14] | GI50 [15] | GI50 [16] | GI50 [17] | GI50 [18] | GI50 [19] | GI50 [20]
O=C(CNc1ccccc1[N+](=O)[O-])Nn1c(-c2ccccc2)nc2ccccc2c1=O | 23.9 µM (inactive) | 25.8 µM (inactive) | 10.4 µM (inactive) | 16.7 µM (inactive) | 18.9 µM (inactive) | 19.7 µM (inactive) | 16.1 µM (inactive) | 22.2 µM (inactive) | > 10 µM (inactive) | 15.8 µM (inactive) | 17.5 µM (inactive) | 15.7 µM (inactive) | 12.4 µM (inactive) | 20.1 µM (inactive) | 19.9 µM (inactive) | 22.2 µM (inactive) | 31.7 µM (inactive) | 22.8 µM (inactive) | – | –
CC(=O)O[C@H]1C[C@@H](OC(C)=O)[C@@](C)(O)[C@@H]2[C@@H](OC(C)=O)[C@@]3(O)[C@H](/C=C(/CO)[C@H]4O[C@H]4[C@@H](OC(C)=O)[C@@]12C)OC(=O)[C@@H]3C | 7.78 µM (inactive) | 12.2 µM (inactive) | 9.25 µM (inactive) | 10.8 µM (inactive) | 7.64 µM (inactive) | – | 10.3 µM (inactive) | 16.3 µM (inactive) | > 25 µM (inactive) | 6.59 µM (inactive) | 11 µM (inactive) | 7.06 µM (inactive) | 17.5 µM (inactive) | 7.26 µM (inactive) | 3.09 µM (inactive) | 6.04 µM (inactive) | – | > 25 µM (inactive) | 17.7 µM (inactive) | 6.89 µM (inactive)
CC(C)(C)OC(=O)NC(CCC(=O)OCc1ccccc1)C(=O)NCCCO (stereo not drawn) | > 100 µM (inactive) | > 100 µM (inactive) | > 100 µM (inactive) | > 100 µM (inactive) | > 100 µM (inactive) | > 100 µM (inactive) | > 100 µM (inactive) | > 100 µM (inactive) | > 100 µM (inactive) | > 100 µM (inactive) | > 100 µM (inactive) | > 100 µM (inactive) | > 100 µM (inactive) | > 100 µM (inactive) | > 100 µM (inactive) | – | > 100 µM (inactive) | > 100 µM (inactive) | > 100 µM (inactive) | > 100 µM (inactive)
O=c1c(=O)c2c(Br)sc(Br)c2c1=O | 17.7 µM (inactive) | 17.3 µM (inactive) | 16.9 µM (inactive) | 19.8 µM (inactive) | 22.6 µM (inactive) | 19.5 µM (inactive) | 20.1 µM (inactive) | 20.6 µM (inactive) | 22.1 µM (inactive) | – | 25 µM (inactive) | – | 17.9 µM (inactive) | 30.2 µM (inactive) | 18.1 µM (inactive) | 19.2 µM (inactive) | – | 70.6 µM (inactive) | 19.1 µM (inactive) | 20.8 µM (inactive)
O=C(CC(=O)Nc1ccccc1)N/N=C/c1cc(/N=N/c2ccc(Br)cc2)ccc1O | 5.93 µM (inactive) | 8.22 µM (inactive) | 8.79 µM (inactive) | 6.37 µM (inactive) | 4 µM (inactive) | 4.05 µM (inactive) | – | – | 4.2 µM (inactive) | 1.54 µM (inactive) | – | 3.26 µM (inactive) | > 10 µM (inactive) | 5.3 µM (inactive) | 3.72 µM (inactive) | – | 2.44 µM (inactive) | – | 3.61 µM (inactive) | –
C=CC(Br)(CBr)CCC(Br)C(C)(C)Cl (stereo not drawn) | 6.27 µM (inactive) | 5.48 µM (inactive) | 7.76 µM (inactive) | 5.14 µM (inactive) | 2.35 µM (inactive) | 1.99 µM (inactive) | 1.64 µM (inactive) | 2.42 µM (inactive) | 2.72 µM (inactive) | 2.22 µM (inactive) | 1.53 µM (inactive) | 2.49 µM (inactive) | 2.04 µM (inactive) | 3.78 µM (inactive) | 3.09 µM (inactive) | 3.27 µM (inactive) | 0.807 µM (active) | 1.71 µM (inactive) | – | 8.73 µM (inactive)
O=C(COc1ccc(Cl)cc1Cl)N/N=C/C=C/c1ccc([N+](=O)[O-])o1 | 2.8 µM (inactive) | 8.47 µM (inactive) | 1.96 µM (inactive) | 2.72 µM (inactive) | 12.3 µM (inactive) | 7.31 µM (inactive) | 1.87 µM (inactive) | 4.63 µM (inactive) | 7.67 µM (inactive) | 3.13 µM (inactive) | 7.01 µM (inactive) | 6.95 µM (inactive) | – | 15.1 µM (inactive) | 3.43 µM (inactive) | 12.6 µM (inactive) | 3.76 µM (inactive) | 9.48 µM (inactive) | > 100 µM (inactive) | 3.27 µM (inactive)
O=C(C/N=C(\CN(c1ccccc1)c1ccccc1)Oc1c(Cl)cc(Cl)cc1Cl)n1cnc2ccccc21 | 52.6 µM (inactive) | 56.2 µM (inactive) | 76 µM (inactive) | > 100 µM (inactive) | > 100 µM (inactive) | > 100 µM (inactive) | 34 µM (inactive) | 78.2 µM (inactive) | > 100 µM (inactive) | 33.8 µM (inactive) | 44.2 µM (inactive) | 74 µM (inactive) | 59.6 µM (inactive) | > 100 µM (inactive) | 59.8 µM (inactive) | 27.5 µM (inactive) | 32.7 µM (inactive) | > 100 µM (inactive) | – | –
Clc1cc2c(cc1Cl)CC(NCCN1CCCC1)CC2 (stereo not drawn) | 10.8 µM (inactive) | 15.8 µM (inactive) | 3.74 µM (inactive) | 12 µM (inactive) | 13.2 µM (inactive) | 13.6 µM (inactive) | 12.9 µM (inactive) | 17.9 µM (inactive) | 14.4 µM (inactive) | 26.4 µM (inactive) | 4.35 µM (inactive) | 15.1 µM (inactive) | – | 16 µM (inactive) | 3.85 µM (inactive) | 15.1 µM (inactive) | 14.6 µM (inactive) | 20.5 µM (inactive) | 15.7 µM (inactive) | 17.8 µM (inactive)
COC(=O)C1OC(O[C@H]2CC[C@]3(C)[C@H]4CC=C5[C@@H]6CC(C)(C)CC[C@]6(C(=O)OC6OCC(O)C(O)C6OC6OC(C)C(OC7OCC(O)C(O)C7O)C(O)C6O)CC[C@@]5(C)[C@]4(C)CC[C@H]3C2(C)C)C(O)C(O)C1O (stereo partly drawn) | 15.5 µM (inactive) and 18.4 µM (inactive) | 13.4 µM (inactive) and 16.4 µM (inactive) | 17.9 µM (inactive) and 17.8 µM (inactive) | 15.3 µM (inactive) and 18.2 µM (inactive) | 15.7 µM (inactive) and 17.5 µM (inactive) | – | 17.1 µM (inactive) and 18.4 µM (inactive) | – | – | 22.6 µM (inactive) and 22.4 µM (inactive) | 15.8 µM (inactive) and 16 µM (inactive) | – | 16.4 µM (inactive) and 19.9 µM (inactive) | 17.9 µM (inactive) and 18.4 µM (inactive) | 18.5 µM (inactive) and 15.9 µM (inactive) | 14.4 µM (inactive) and 15.8 µM (inactive) | 21.2 µM (inactive) and 19.1 µM (inactive) | 13.6 µM (inactive) and 17.2 µM (inactive) | 12.9 µM (inactive) and 15.5 µM (inactive) | 19.7 µM (inactive) and 17.6 µM (inactive)
O=C(O)c1ccccc1/C=N/N=C1NCCCCN1 | > 100 µM (inactive) | – | > 100 µM (inactive) | > 100 µM (inactive) | > 100 µM (inactive) | > 100 µM (inactive) | > 100 µM (inactive) | > 100 µM (inactive) | > 100 µM (inactive) | > 100 µM (inactive) | > 100 µM (inactive) | > 100 µM (inactive) | > 100 µM (inactive) | > 100 µM (inactive) | > 100 µM (inactive) | > 100 µM (inactive) | > 100 µM (inactive) | > 100 µM (inactive) | – | > 100 µM (inactive)
COC(=O)C1Cc2c([nH]c3ccccc23)-c2[nH]c3ccccc3c2CC(NC(C)=O)C(=O)N2CCCC2C(=O)N1 (stereo not drawn) | – | > 100 µM (inactive) | > 100 µM (inactive) | – | > 100 µM (inactive) | > 100 µM (inactive) | > 100 µM (inactive) | > 100 µM (inactive) | > 100 µM (inactive) | 93.5 µM (inactive) | > 100 µM (inactive) | > 100 µM (inactive) | – | > 100 µM (inactive) | > 100 µM (inactive) | > 100 µM (inactive) | – | > 100 µM (inactive) | > 100 µM (inactive) | > 100 µM (inactive)
O=C(C1=CCC2(CC1)OCCO2)N(Cc1ccccc1)c1ccccc1I | – | 24 µM (inactive) | 13.9 µM (inactive) | 16.9 µM (inactive) | 18.8 µM (inactive) | – | 14.8 µM (inactive) | 20.8 µM (inactive) | 21.5 µM (inactive) | – | 17.9 µM (inactive) | 20 µM (inactive) | 16.1 µM (inactive) | 22.4 µM (inactive) | 29 µM (inactive) | 26.3 µM (inactive) | 18 µM (inactive) | 18.9 µM (inactive) | 24.5 µM (inactive) | 21.2 µM (inactive)
Cc1ccc(C2=C(C#N)C(=O)N3CCN=C3S2)cc1 | 43.5 µM (inactive) | > 100 µM (inactive) | > 100 µM (inactive) | > 100 µM (inactive) | > 100 µM (inactive) | > 100 µM (inactive) | > 100 µM (inactive) | 45.1 µM (inactive) | > 100 µM (inactive) | > 100 µM (inactive) | 57.1 µM (inactive) | > 100 µM (inactive) | > 100 µM (inactive) | – | > 100 µM (inactive) | > 100 µM (inactive) | – | 70.3 µM (inactive) | > 100 µM (inactive) | > 100 µM (inactive)
O=C(O)c1cc(O)c2c(c1)Cc1cccc(O)c1C2=O | 19.7 µM (inactive) | 16.6 µM (inactive) | 21.1 µM (inactive) | 23.4 µM (inactive) | 30.5 µM (inactive) | – | 23.9 µM (inactive) | 15.4 µM (inactive) | 34.4 µM (inactive) | 29.4 µM (inactive) | 42.9 µM (inactive) | 21.5 µM (inactive) | 17.2 µM (inactive) | 19.1 µM (inactive) | > 10 µM (inactive) | 29.2 µM (inactive) | 21.1 µM (inactive) | 28.6 µM (inactive) | – | –
